Laboratory results from patent publication US20090029992A1, “SUBSTITUTED PYRAZOLE COMPOUNDS” (priority 2007, published 2009).

What was measured:
Format in all cases: biochemical
recombinant Aurora A = target: T1, recombinant Aurora A (Homo sapiens, UniProt O14965); assay: Aurora A (Aurora 2) inhibition assay, Z'-Lyte kinase assay; conditions: ATP 10 μM, 1 h
T1 construct: purchased Upstate, Lake Placid, N.Y
T1 sequence (O14965 1-403): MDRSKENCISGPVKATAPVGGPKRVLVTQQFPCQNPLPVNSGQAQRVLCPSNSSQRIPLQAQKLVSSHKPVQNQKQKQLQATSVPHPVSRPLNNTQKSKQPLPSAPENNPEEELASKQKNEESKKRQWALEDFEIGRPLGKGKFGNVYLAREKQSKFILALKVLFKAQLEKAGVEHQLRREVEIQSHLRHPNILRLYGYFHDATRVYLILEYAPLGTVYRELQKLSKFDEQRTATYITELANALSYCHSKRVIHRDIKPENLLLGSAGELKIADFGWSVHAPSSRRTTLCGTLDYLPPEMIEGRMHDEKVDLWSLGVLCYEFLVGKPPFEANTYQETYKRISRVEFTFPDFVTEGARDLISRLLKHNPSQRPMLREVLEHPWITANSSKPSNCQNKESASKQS
Procedure: Compounds were tested for their potency against recombinant Aurora A (Upstate, Lake Placid, N.Y.) using the PanVera Z′-Lyte kinase assay kit—Ser/Thr 1 peptide (Invitrogen, Carlsbad, Calif.). Assays were carried out in kinase assay buffer (50 mM HEPES, pH 7.5, 10 mM MgCl2, 5 mM EGTA, 0.05% Brij-35, 2 mM DTT). Test compounds were initially dissolved in DMSO at 100× the highest tested concentration, then serially diluted to 4× test concentrations in kinase assay buffer. Next, Aurora A (final concentration 200-500 ng/mL), Z′-Lyte Ser/Thr 1 peptide (final concentration 2 μM) and ATP (final concentration 10 μM) were added according to the manufacturer's instructions. Assays were carried out in half-area 96-well white polystyrene assay plates (Corning, Corning, N.Y.) in a final volume of 20 μl. The reaction was allowed to proceed for 1 h at room temperature in the dark, at which point the development reagent and stop reagent were added according to the manufacturer's instructions. Coumarin (Ex. 400 nm, Em. 465 nm) and fluorescein (Ex. 400 nm, Em. 565 nm) fluorescence values were measured on a SpectraFluor Plus plate reader (Tecan, Durham, N.C.). The emission ratio (coumarin/fluorescein) was determined and used to calculate the percent phosphorylation for each well. Wells containing substrate but no kinase and wells containing a phosphopeptide control were used to set 0% and 100% phosphorylation values, respectively. Typically 20-40% of the substrate was phosphorylated in wells without inhibitor. Dose-response curves of relative Aurora A activity vs. inhibitor concentration were plotted with Grafit (Erithacus Software, Horley, Surrey, UK).

[1] = target: T2, N-terminal His-tagged human Src (Homo sapiens, UniProt P12931); assay: Src kinase inhibition assay (33P-ATP filter assay)
T2 construct: His (N); purchased Upstate USA Inc, 706 Forest Street, Charlottesville, Va
Procedure: (§1) Compounds were assayed for Src kinase inhibitory activity using N-terminal His-tagged human Src (Upstate USA Inc, 706 Forest Street, Charlottesville, Va.). Serial dilutions of compound were assayed in a final reaction volume of 25 μL by incubating a solution of the above Src kinase (5-10 mU), 8 mM MOPS (3-(N-morpholino) propanesulfonic acid) pH 7.0, 0.2 mM EDTA (ethylenediamine tetracetic acid), 250 μM amino acid sequence KVEKIGEGTYGVVYK (Upstate USA Inc, 706 Forest Street, Charlottesville, Va.), and 10 mM magnesium acetate and [γ-^33P-ATP] (specific activity of about 500 cpm/μmol, concentration as required). The reaction was initiated by the addition of the magnesium acetate and [γ-^33P-ATP] mixture. After incubation for 40 minutes at room temperature, the reaction was stopped by the addition of 5 μL of a 3% phosphoric acid solution. A 10 μL aliquote of the reaction was then spotted onto a P30 filtermat (PerkinElmer, Wellesley, Mass.) and washed three times for five minutes in 75 mM phosphoric acid and once in methanol prior to drying and scintillation counting. Inhibition of Src activity was determined by comparison to assays that contained no inhibitor.

[2] = target: T3, N-terminal His6-tagged recombinant human KDR, residues 790-end (Homo sapiens, UniProt P35968); assay: KDR kinase inhibition assay (33P-ATP filter assay)
T3 construct: recombinant human KDR, residues 790-end; His6 (N); purchased Upstate USA Inc, 706 Forest Street, Charlottesville, Va
Procedure: as §1, with “for KDR” for “for Src”, “N-terminal His6-tagged recombinant” for “N-terminal His-tagged”, “human KDR, residues 790-end” for “human Src”, “above KDR” for “above Src”, “acid), 0.33 mg/mL myelin basic protein” for “acid), 250 μM amino acid sequence KVEKIGEGTYGVVYK”, “of KDR” for “of Src”

[3] = target: T4, N-terminal GST-tagged recombinant human Flt3, residues 564-end (Homo sapiens, UniProt P36888); assay: Flt3 kinase inhibition assay (33P-ATP filter assay); conditions: 40 minutes at room temperature
T4 construct: recombinant human Flt3, residues 564-end; GST (N); purchased Upstate USA Inc, 706 Forest Street, Charlottesville, Va
T4 sequence (P36888 564-993 limits assumed): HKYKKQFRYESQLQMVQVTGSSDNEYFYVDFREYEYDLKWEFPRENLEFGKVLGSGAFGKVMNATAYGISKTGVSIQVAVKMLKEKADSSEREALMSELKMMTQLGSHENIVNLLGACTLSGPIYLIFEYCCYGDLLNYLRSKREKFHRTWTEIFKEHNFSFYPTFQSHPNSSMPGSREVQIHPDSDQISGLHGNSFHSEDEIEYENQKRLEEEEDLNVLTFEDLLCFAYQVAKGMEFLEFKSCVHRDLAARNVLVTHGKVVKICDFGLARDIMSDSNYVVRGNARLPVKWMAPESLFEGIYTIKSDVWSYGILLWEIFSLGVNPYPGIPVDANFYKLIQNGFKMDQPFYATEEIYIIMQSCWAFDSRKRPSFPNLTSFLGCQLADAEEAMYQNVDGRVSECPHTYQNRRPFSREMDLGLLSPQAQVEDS
Procedure: Compounds were assayed for Flt3 kinase inhibitory activity using N-terminal GST-tagged recombinant human Flt3, residues 564-end (Upstate USA Inc, 706 Forest Street, Charlottesville, Va.). Serial dilutions of compound were assayed in a final reaction volume of 25 μL by incubating a solution of the above Flt3 kinase (5-10 mU), 8 mM MOPS (3-(N-morpholino) propanesulfonic acid) pH 7.0, 0.2 mM EDTA (ethylenediamine tetracetic acid), 50 μM amino acid sequence EAIYAAPFAKKK (Upstate USA Inc, 706 Forest Street, Charlottesville, Va.), and 10 mM magnesium acetate and [γ-^33P-ATP] (specific activity of about 500 cpm/μmol, concentration as required). The reaction was initiated by the addition of the magnesium acetate and [γ-^33P-ATP] mixture. After incubation for 40 minutes at room temperature, the reaction was stopped by the addition of 5 μL of a 3% phosphoric acid solution. A 10 μL aliquote of the reaction was then spotted onto a P30 filtermat (PerkinElmer, Wellesley, Mass.) and washed three times for five minutes in 75 mM phosphoric acid and once in methanol prior to drying and scintillation counting. Inhibition of Flt3 activity was determined by comparison to assays that contained no inhibitor.

[4] = group with IC50 greater than 100 nM

T3 sequence (P35968 790-1356 limits assumed): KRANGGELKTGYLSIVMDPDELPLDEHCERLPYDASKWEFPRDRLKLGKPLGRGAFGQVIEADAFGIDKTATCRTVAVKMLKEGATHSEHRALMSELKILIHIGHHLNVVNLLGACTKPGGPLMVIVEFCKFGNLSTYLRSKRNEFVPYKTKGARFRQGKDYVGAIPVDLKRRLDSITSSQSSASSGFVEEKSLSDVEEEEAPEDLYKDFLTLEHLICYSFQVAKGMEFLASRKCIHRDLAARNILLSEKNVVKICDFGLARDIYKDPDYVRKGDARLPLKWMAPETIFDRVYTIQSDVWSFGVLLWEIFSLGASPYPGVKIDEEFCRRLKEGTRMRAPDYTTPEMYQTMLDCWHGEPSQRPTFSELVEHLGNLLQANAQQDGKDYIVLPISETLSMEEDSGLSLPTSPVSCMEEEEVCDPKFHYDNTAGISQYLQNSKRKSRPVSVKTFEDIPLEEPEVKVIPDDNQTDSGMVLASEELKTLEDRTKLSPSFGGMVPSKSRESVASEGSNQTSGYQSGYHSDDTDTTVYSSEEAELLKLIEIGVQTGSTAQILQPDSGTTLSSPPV
T2 sequence (P12931 whole entry): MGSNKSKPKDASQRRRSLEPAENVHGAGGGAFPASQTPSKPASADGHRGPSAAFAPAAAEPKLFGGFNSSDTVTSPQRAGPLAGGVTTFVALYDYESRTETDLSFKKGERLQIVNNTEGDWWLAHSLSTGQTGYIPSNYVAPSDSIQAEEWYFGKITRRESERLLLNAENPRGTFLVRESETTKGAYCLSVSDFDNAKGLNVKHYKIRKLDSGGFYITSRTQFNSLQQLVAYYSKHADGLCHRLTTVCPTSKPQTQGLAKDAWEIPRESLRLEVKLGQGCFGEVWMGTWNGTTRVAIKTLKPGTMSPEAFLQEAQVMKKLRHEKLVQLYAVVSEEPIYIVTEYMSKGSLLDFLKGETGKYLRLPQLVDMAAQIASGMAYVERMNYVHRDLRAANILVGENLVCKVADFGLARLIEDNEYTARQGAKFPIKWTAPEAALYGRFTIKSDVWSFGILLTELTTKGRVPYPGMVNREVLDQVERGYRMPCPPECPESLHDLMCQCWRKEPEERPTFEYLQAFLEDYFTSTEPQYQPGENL

Row | Structure (SMILES) | IC50 (recombinant Aurora A; [4]) [nM] | IC50 [1, 4] [nM] | IC50 [2, 4] [nM] | IC50 [3] [nM] | IC50 (recombinant Aurora A) [nM] | IC50 ([1]; 40 minutes at room temperature) [nM] | IC50 ([2]; 40 minutes at room temperature) [nM]
1 | Cc1cc(Nc2cc(N3CCN(C)CC3)nc(-c3cccc(O)c3)n2)n[nH]1 [Example 161, 3-(4-(5-methyl-1H-pyrazol-3-ylamino)-6-(4-methylpiperazin-1-yl)pyrimidin-2-yl)phenol] |  |  |  | ≤ 100 | ≤ 100 | ≤ 100 | ≤ 100
2 | CC(=O)Nc1cccc(-c2nc(Nc3cc(C)[nH]n3)cc(N3CCN(C)CC3)n2)c1 [Example 167, N-(3-(4-(5-methyl-1H-pyrazol-3-ylamino)-6-(4-methylpiperazin-1-yl)pyrimidin-2-yl)phenyl)acetamide] |  |  |  | ≤ 100 | ≤ 100 | ≤ 100 | ≤ 100
3 | Cc1cc(Nc2cc(NC3CCOCC3)nc(-c3cccc(C)c3C)n2)n[nH]1 [Example 180, 2-(2,3-dimethylphenyl)-N^4-(5-methyl-1H-pyrazol-3-yl)-N^6-(tetrahydro-2H-pyran-4-yl)pyrimidine-4,6-diamine] | ≤ 1000 | ≤ 1000 |  | ≤ 100 |  |  | ≤ 100
4 | COCCN(C)c1cc(Nc2cc(C)[nH]n2)nc(-c2cccc(C)c2C)n1 [Example 181, 2-(2,3-dimethylphenyl)-N^4-(2-methoxyethyl)-N^4-methyl-N^6-(5-methyl-1H-pyrazol-3-yl)pyrimidine-4,6-diamine] | ≤ 1000 | ≤ 1000 | ≤ 1000 | ≤ 100 |  |  | 

Now from value to compound:

Row | IC50 (recombinant Aurora A; [4]) [nM] | IC50 [1, 4] [nM] | IC50 [2, 4] [nM] | IC50 [3] [nM] | IC50 (recombinant Aurora A) [nM] | IC50 ([1]; 40 minutes at room temperature) [nM] | IC50 ([2]; 40 minutes at room temperature) [nM] | Structure (SMILES)
5 | ≤ 1000 | ≤ 1000 | ≤ 1000 |  |  |  |  | Cc1cc(Nc2cc(NC3CCOCC3)nc(-c3ccccc3Cl)n2)n[nH]1 [Compound 24, 2-(2-chlorophenyl)-N^4-(5-methyl-1H-pyrazol-3-yl)-N^6-(tetrahydro-2H-pyran-4-yl)pyrimidine-4,6-diamine]
6 | ≤ 1000 | ≤ 1000 | ≤ 1000 | ≤ 100 |  |  |  | Cc1cc(Nc2cc(NC3CCOCC3)nc(-c3cccc4c3OCCO4)n2)n[nH]1 [Compound 129]
7 | ≤ 1000 | ≤ 1000 | ≤ 1000 | ≤ 100 |  |  |  | Cc1ccc(C)c(-c2nc(Nc3cc(C)[nH]n3)cc(NC3CCOCC3)n2)c1 [Example 206, 2-(2,5-dimethylphenyl)-N^4-(5-methyl-1H-pyrazol-3-yl)-N^6-(tetrahydro-2H-pyran-4-yl)pyrimidine-4,6-diamine]
